In US12371404B2, “Fused bicyclic alkylene linked imidodicarbonimidic diamides, methods for synthesis, and uses in therapy” (NovaTarg, Inc., priority 2016, dated 2025):
Where a name gives a salt, the structure may show the parent alone.

Experiments:
human MATE1 = target: T1, human MATE1 (Homo sapiens, UniProt Q96FL8); experiment: Oxygen consumption rate (OCR) assay, HEK293 cells transfected with MATE1; conditions: for inhibition at 1000 µM: HEK293, read-out: Oxygen Consumption Rate (OCR), MATE 1, % Inhibition at 1000 μM test concentration
T1 sequence (Q96FL8 1-570): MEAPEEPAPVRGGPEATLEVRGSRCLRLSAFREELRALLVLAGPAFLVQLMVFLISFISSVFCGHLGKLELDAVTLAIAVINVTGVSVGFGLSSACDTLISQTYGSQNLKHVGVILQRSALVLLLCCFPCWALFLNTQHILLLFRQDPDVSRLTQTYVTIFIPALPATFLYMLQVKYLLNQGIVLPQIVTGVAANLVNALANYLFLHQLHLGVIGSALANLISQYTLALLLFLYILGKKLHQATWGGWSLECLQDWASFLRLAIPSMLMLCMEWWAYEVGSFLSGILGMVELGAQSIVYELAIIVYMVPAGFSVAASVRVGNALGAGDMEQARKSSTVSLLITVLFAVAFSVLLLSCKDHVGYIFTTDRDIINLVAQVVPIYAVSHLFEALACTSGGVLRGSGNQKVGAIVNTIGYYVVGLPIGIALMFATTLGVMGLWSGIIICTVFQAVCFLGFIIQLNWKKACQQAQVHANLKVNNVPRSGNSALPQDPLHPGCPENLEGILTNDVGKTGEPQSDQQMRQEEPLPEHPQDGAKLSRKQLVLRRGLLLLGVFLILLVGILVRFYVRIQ
Excerpt: The compounds of the present invention are similarly tested in an oxygen consumption rate (OCR) assay to evaluate the functional activity of test compounds in cells.
(§1) In brief, the assay uses HEK293 cells stably transfected with the human OCT1, OCT2, OCT3, PMAT, or MATE1 transporters to determine a compound's relative transporter selectivity and its effect on the rate of oxygen consumption relative to control (Neo) cells. The MitoXpress Xtra oxygen-sensitive fluorophore is used to monitor oxygen consumption rates in the presence and absence of compound treatments. The analogs were tested at eight (8) different concentrations in triplicate to determine a relative IC50 value.
(§2) A summary description of the protocol is as follows:
(§3) Cells were incubated overnight to allow attachment. The outer columns (1 and 12) are not seeded with cells, as controls. The next day, plating medium was removed and replaced with 150 μL of assay medium (DMEM/F12 (PRF), 5% FBS, antibiotics) containing compound dilutions. A 3-fold serial dilution was prepared in the assay medium and transferred to the empty wells. The outer columns and column 11 received 150 μL of assay medium only. 10 μL of MitoXpress Xtra reagent was added to each test well, and 100 μL of pre-warmed mineral oil was overlayed in each well to create a seal. Dual read time-resolved fluorescence (BMG FluoStar Galaxy reader) was measured over 2 hours with measurements taken every 2 minutes. Excitation is 340 nm, Emission is 650 nm. For lifetime analysis, two measurements per well were taken: 1) delay of 30 μs, with a window of 30 μs; and 2) delay of 70 μs with a window of 30 μs. Background TRF values from A1-D1 were subtracted from all readings. A ratiometric analysis was performed to determine changes in the Lifetime fluorescence signal:Lifetime (μs) [T]=(D2−D1)/ln(W1/W2), where D is delay; W is fluorescence window value at each time point. Lifetime slopes were calculated using each Lifetime measurement over time. IC50 values were determined by plotting lifetime slope values vs. compound concentration.

control (Neo) cells = experiment: Oxygen consumption rate (OCR) assay, control (Neo) HEK293 cells; assay type: cell-based; conditions: Homo sapiens; control (Neo) HEK293 cells; MitoXpress Xtra, 2 hours; read-out: Oxygen Consumption Rate (OCR) IC50, Neo
Excerpt: Diabetologia 2011, 54 (12): 3101-3110, each incorporated by reference with regard to such testing. The compounds of the present invention are similarly tested in an oxygen consumption rate (OCR) assay to evaluate the functional activity of test compounds in cells.
as §1, §2
as §3, with “HEK293 cells transformed with human organic cation transporters were plated in collagen coated, 96-well black-walled microclear plates (Greiner-Bio 1, #655956) at 60,000 cells per well in growth medium (DMEM (LG), 10% FBS, 400 μg/ml G418). Cells” for “Cells”

SMILES	inhibition at 1000 µM (human MATE1) [%]	IC50 (control (Neo) cells) [µM]	IC50 (human MATE1) [µM]
CCOc1ccc2[nH]cc(CCNC(=N)NC(=N)N)c2c1 [Ex 12, 1-[2-(5-ethoxy-1H-indol-3-yl)ethyl]imidodicarbonimide diamide trifluoroacetic acid salt]	-8	1150	
N=C(N)NC(=N)NCCc1cn(CCO)c2ccccc12 [Ex 13, 1-[2-(1-(2-hydroxyethyl)-1H-indol-3-yl)ethyl]imidodicarbonimide diamide trifluoroacetic acid salt]	22	2520	
COc1cccc2[nH]cc(CCNC(=N)NC(=N)N)c12 [Ex 14, 1-[2-(4-methoxy-1H-indol-3-yl)ethyl]imidodicarbonimide diamide trifluoroacetic acid salt]	39	1310	
N=C(N)NC(=N)NCCc1c[nH]c2ccc(OCCO)cc12 [Ex 15, 1-(2-(5-(2-hydroxyethoxy)-1H-indol-3-yl)ethyl)imidodicarbonimide diamide trifluoroacetic acid salt]	-17	> 10000	
COc1ccc2[nH]c(C)c(CCNC(=N)NC(=N)N)c2c1 [Ex 19, 1-[2-(5-methoxy-2-methyl-1H-indol-3-yl)ethyl]imidodicarbonimide diamide, trifluoroacetic acid salt]	14	> 3000	
N=C(N)NC(=N)NCCc1c[nH]c2ncccc12 [Ex 20, 1-(2-(1H-pyrrolo[2,3-b]pyridin-3-yl)ethyl)imidodicarbonimide diamide hydrochloride]		605	
CN(C)C(=N)NC(=N)NCCc1c[nH]c2ccc(F)cc12 [Ex 24, 3-(2-(5-fluoro-1H-indol-3-yl)ethyl)-1,1-dimethyl imidodicarbonimide diamide hydrochloride]		1590	> 10000
N=C(N)NC(=N)NCCc1c[nH]c2ccc(C(F)(F)F)cc12 [Ex 25, 1-[2-(5-trifluoromethyl-1H-indol-3-yl)ethyl]imidodicarbonimide diamide, trifluoroacetic acid salt]	44	51	
N=C(N)NC(=N)NCCc1c[nH]c2c(F)cc(F)cc12 [Ex 27, 1-[2-(5,7-difluoro-1H-indol-3-yl)ethyl]imidodicarbonimide diamide, trifluoroacetic acid salt]		291	
N=C(N)NC(=N)NCCc1c[nH]c2cc(F)c(F)cc12 [Ex 28, 1-[2-(5,6-difluoro-1H-indol-3-yl)ethyl]imidodicarbonimide diamide, trifluoroacetic acid salt]		604	
Cc1[nH]c2ccc(F)cc2c1CCNC(=N)NC(=N)N [Ex 29, 1-[2-(5-fluoro-2-methyl-1H-indol-3-yl)ethyl]imidodicarbonimide diamide, trifluoroacetic acid salt]		> 100	
CN(C)C(=N)NC(=N)NCCc1c[nH]c2ncccc12 [Ex 30, 1-(2-(1H-pyrrolo[2,3-b]pyridin-3-yl)ethyl)-1,1-dimethyl imidodicarbonimide diamide trifluoroacetic acid salt]		864	
CN(C)C(=N)NC(=N)NCCc1c[nH]c2ccc(OC(F)(F)F)cc12 [Ex 33, 3-(2-(5-trifluoromethoxy-1H-indol-3-yl)ethyl)-1,1-dimethyl imidodicarbonimide diamide hydrochloride]		156	218
Cc1cc2c(CCNC(=N)NC(=N)N)c[nH]c2cc1F [Ex 37, 1-[2-(6-fluoro-5-methyl-1H-indol-3-yl)ethyl]imidodicarbonimide diamide, trifluoroacetic acid salt]		326	70
N=C(N)NC(=N)NCCc1c[nH]c2c(Cl)cc(F)cc12 [Ex 38, 1-[2-(7-chloro-5-fluoro-1H-indol-3-yl)ethyl]imidodicarbonimide diamide, trifluoroacetic acid salt]		8760	2050
Cn1cc(CCNC(=N)NC(=N)N)c2cccnc21 [Ex 39, 1-(2-(1-methyl-1H-pyrrolo[2,3-b]pyridin-3-yl)ethyl)imidodicarbonimide diamide, trifluoroacetic acid salt]		205	168
N=C(N)NC(=N)NCCc1c[nH]c2ncc(Cl)cc12 [Ex 40, 1-(2-(5-chloro-1H-pyrrolo[2,3-b]pyridin-3-yl)ethyl)imidodicarbonimide diamide, trifluoroacetic acid salt]		> 1000	1470
Cc1[nH]c2ncccc2c1CCNC(=N)NC(=N)N [Ex 44, 1-(2-(2-methyl-1H-pyrrolo[2,3-b]pyridin-3-yl)ethyl)imidodicarbonimide diamide, trifluoroacetic acid salt]		1660	474
N=C(N)NC(=N)NCCc1c[nH]c2nccc(Cl)c12 [Ex 46, 1-(2-(4-chloro-1H-pyrrolo[2,3-b]pyridin-3-yl)ethyl)imidodicarbonimide diamide, trifluoroacetic acid salt]		2640	335
N=C(N)NC(=N)NCCc1c[nH]c2ccc(F)c(Cl)c12 [Ex 47, 1-[2-(4-chloro-5-fluoro-1H-indol-3-yl)ethyl]imidodicarbonimide diamide, trifluoroacetic acid salt]		101	22
N=C(N)NC(=N)NCCc1c[nH]c2ccc(Cl)c(F)c12 [Ex 49, 1-[2-(5-chloro-4-fluoro-1H-indol-3-yl)ethyl]imidodicarbonimide diamide, trifluoroacetic acid salt]		155	64
N=C(N)NC(=N)NCCc1c[nH]c2cc(F)c(F)c(F)c12 [Ex 50, 1-[2-(4,5,6-trifluoro-1H-indol-3-yl)ethyl]imidodicarbonimide diamide, trifluoroacetic acid salt]		181	102
N=C(N)NC(=N)NCCc1c[nH]c2c(F)c(Cl)ccc12 [Ex 51, 1-[2-(6-chloro-7-fluoro-1H-indol-3-yl)ethyl]imidodicarbonimide diamide, trifluoroacetic acid salt]		542	597
Cn1cc(CCNC(=N)NC(=N)N)c2ccc(F)cc21 [Ex 52, 1-[2-(6-fluoro-1-methyl-1H-indol-3-yl)ethyl]imidodicarbonimide diamide, trifluoroacetic acid salt]		388	32
CN(C)C(=N)NC(=N)NCCc1c[nH]c2ccc(Cl)cc12 [Ex 53, 3-(2-(5-chloro-1H-indol-3-yl)ethyl)-1,1-dimethyl imidodicarbonimide diamide trifluoroacetic acid salt]		422	398
